Structures are written as SMILES.

Data on 8 compounds can be found in patent publication US8221737B2, “Hepatitis C virus inhibitors” (Enanta Pharmaceuticals, Inc., priority 2009, dated 2012).

The experiment relates to HCV 1b genotype replicon. In words: HCV replicon assay - qRT-PCR (HCV RNA detection). The format is cell-based. The note with it: Hepatitis C virus, from the qRT-PCR or luciferase assay (not specified which), EC50 range class. The source says: HCV replicon cell lines (kindly provided by R. Bartenschlager) isolated from colonies as described by Lohman et. al. (Lohman et al. (1999) Science 285: 110-113, expressly incorporated by reference in its entirety) and used for all experiments. The HCV replicon has the nucleic acid sequence set forth in EMBL Accession No.: AJ242651, the coding sequence of which is from nucleotides 1801 to 8406.
The coding sequence of the published HCV replicon was synthesized and subsequently assembled in a modified plasmid pBR322 (Promega, Madison, Wis.) using standard molecular biology techniques. One replicon cell line (“SGR 11-7”) stably expresses HCV replicon RNA which consists of (i) the HCV 5′UTR fused to the first 12 amino acids of the capsid protein, (ii) the neomycin phosphotransferase gene (neo), (iii) the IRES from encephalomyocarditis virus (EMCV), and (iv) HCV NS2 to NS5B genes and the HCV 3′UTR. Another replicon cell line (“Huh-luc/neo-ET”) described by Vrolijk et. al. (Vrolijk et. al. (2003) Journal of Virological Methods 110:201-209, expressly incorporated by reference in its entirety) stably expresses HCV replicon RNA which consists of (i) the HCV 5′UTR fused to the first 12 amino acids of the capsid protein, (ii) the firefly luciferase reporter gene, (iii) the ubiquitin gene, (iv) the neomycin phosphotransferase gene (neo), (v) the IRES from encephalomyocarditis virus (EMCV), and (vi) HCV NS3 to NS5B genes that harbor cell culture adaptive mutations (E1202G, T12801, K1846T) and the HCV 3′UTR.
These cell lines were maintained at 37° C., 5% CO2, 100% relative humidity in DMEM (Cat#11965-084, Invitrogen), with 10% fetal calf serum (“FCS”, Invitrogen), 1% non-essential amino acids (Invitrogen), 1% of Glutamax (Invitrogen), 1% of 1 OOX penicillin/streptomycin (Cat#15140-122, Invitrogen) and Geneticin (Cat#10131-027, Invitrogen) at 0.75 mg/ml or 0.5 mg/ml for 11-7 and Huh-luc/neo-ET cells, respectively.
EC50 values of single agent compounds and combinations were determined by HCV RNA detection using quantitative RT-PCR, according to the manufacturer's instructions, with a TAQMAN® One-Step RT-PCR Master Mix Reagents Kit (Cat# AB 4309169, Applied Biosystems) on an ABI Model 7500 thermocycler. The TaqMan primers used for detecting and quantifying HCV RNA were obtained from Integrated DNA Technologies. HCV RNA was normalized to GAPDH RNA levels in drug-treated cells, which is detected and quantified using the Human GAPDH Endogenous Control Mix (Applied Biosystems, AB 4310884E). Total cellular RNA is purified from 96-well plates using the RNAqueous 96 kit (Ambion, Cat# AM1812). Chemical agent cytotoxicity is evaluated using an MTS assay according to the manufacturer's directions (Promega).
The compounds of the present invention can be effective against the HCV 1b genotype. It should also be understood that the compounds of the present invention can inhibit multiple genotypes of HCV. In one embodiment compound of the present invention are active against the 1a, 1b, 2a, 2b, 3a, 4a, and 5a genotypes. […] EC50 ranges against HCV 1b are as follows: A>10 nM; B1-10 nM; C<1 nM.
A general note: Replicon systems follow genome replication, usually without infectious particles.
What is called EC50 is the concentration at which the effect is half-maximal. Consider `COC(=O)N[C@H](C(=O)N1CCC[C@H]1c1ncc(-c2ccc3cc(-c4ccc5[nH]c(N6CCCN6C(=O)[C@@H](NC(=O)OC)C(C)C)nc5c4)ccc3c2)[nH]1)C(C)C` [Example 368], for which the EC50 was less than 1 nM.

With `COC(=O)N[C@H](C(=O)N1CCC[C@H]1c1nc2ccc(C#Cc3ccc(-c4cnc([C@@H]5CCCN5C(=O)N(NC(=O)OC)C(C)C)[nH]4)cc3)cc2[nH]1)C(C)C` [Example 369], the EC50 was less than 1 nM. With `CCN(NC(=O)OC)C(=O)N1CCC[C@H]1c1ncc(-c2ccc(C#Cc3ccc4nc([C@@H]5CCCN5C(=O)[C@@H](NC(=O)OC)C(C)C)[nH]c4c3)cc2)[nH]1` [Example 370], the EC50 was less than 1 nM.

`CCCN(NC(=O)OC)C(=O)N1CCC[C@H]1c1ncc(-c2ccc(C#Cc3ccc4nc([C@@H]5CCCN5C(=O)[C@@H](NC(=O)OC)C(C)C)[nH]c4c3)cc2)[nH]1` [Example 371]: the EC50 was less than 1 nM. As to `COC(=O)N[C@H](C(=O)N1CCC[C@H]1c1nc2ccc(C#Cc3ccc(-c4cnc([C@@H]5CCCN5C(=O)N(CC(C)C)NC(=O)OC)[nH]4)cc3)cc2[nH]1)C(C)C` [Example 372], the EC50 is less than 1 nM. Consider `COC(=O)NN(C(=O)N1CCC[C@H]1c1ncc(-c2ccc(-c3ccc(-c4cnc([C@@H]5CCCN5C(=O)N(NC(=O)OC)C(C)C)[nH]4)cc3)cc2)[nH]1)C(C)C` [Example 373], for which the EC50 is less than 1 nM. In the case of `COC(=O)N[C@H](C(=O)N1CCC[C@H]1c1ncc(-c2ccc(-c3ccc(-c4cnc([C@@H]5CCCN5C(=O)N(NC(=O)OC)C(C)C)[nH]4)cc3)cc2)[nH]1)C(C)C` [Example 374] it was less than 1 nM; in that of `CCN(NC(=O)OC)C(=O)N1CCC[C@H]1c1ncc(-c2ccc(-c3ccc(-c4cnc([C@@H]5CCCN5C(=O)[C@@H](NC(=O)OC)C(C)C)[nH]4)cc3)cc2)[nH]1` [Example 375], less than 1 nM.
